Experimental data taken from patent publication US5070207A, “Phospholipase A2 inhibitors” (American Home Products Corporation, priority 1990, dated 1991).

System: PLA2 (A. piscivorus piscivorus) induced paw edema
Assay: in vivo PLA2 murine paw edema assay
Design: species or system mouse (male CD-1)
Details: for ED50: Mus musculus, ip
Method: The ability of the compounds of the invention to inhibit paw edema induced by the exogenous administration of PLA2 is measured in the in vivo PLA2 murine paw edema assay.
Non-fasted, male CD-1 mice (8 weeks old; 31-36 grams) are placed in plastic boxes in groups of six. The right hind paw volume is measured using mercury plethysmography (zero time). Compounds are dosed orally (0.5 mL of 0.5% Tween-80) 1 or 3 hours prior to PLA2 injection or intravenously (0.2 mL in 0.3% dimethylsulfoxide/saline) 3 minutes prior to PLA2 injection. A solution of purified PLA2, from the diamond back cotton mouth snake (A. piscivorus piscivorus) is prepared in saline at a concentration of 6 μg/mL. Fifty (50) μL (0.3 μg) of this PLA2 solution is injected subcutaneously into the right hind paw with a plastic 1 mL plastic syringe (27 gauge, 1" needle). Paw volume of the injected paw is measured again at 10 minutes, 30 minutes and 60 minutes after PLA2 injection. Animals are euthanized with CO2 at the completion of the study.
The paw edema is calculated by subtracting the zero time volume from the volume recorded at each time period. Mean paw edema for each treatment group is then calculated and expressed as (μL±S.E.). Drug effects are expressed as a percent change from control (vehicle) values. Statistical significance is determined by a oneway analysis of variance with LSD comparison to control (p<0.05). ED50 's are determined using repression analysis.

COc1cccc2c1cc([N+](=O)[O-])c1c(C(=O)O)cc3c(c12)OCO3 [Aristolochic Acid, reference compound]
ED50 at +10 min. (p.o., standard drugs): Not Active

C[C@@H]1C[C@H]2[C@@H]3CCC4=CC(=O)C=C[C@]4(C)[C@@]3(F)[C@@H](O)C[C@]2(C)[C@@]1(O)C(=O)CO [Dexamethasone, reference compound]
ED50 at +10 min. (p.o. 3 hr, standard drug): 10 mg/kg

O=C(C#CCCCOc1ccc(Cl)cc1)C(F)(F)F [Example 1, 7-(4-Chlorophenoxy)-1,1,1-trifluoro-3-heptyn-2-one]
% Change in Edema 10 min (10 mg/kg i.v.): -64%
% Change in Edema 30 min (10 mg/kg i.v.): -34%
% Change in Edema 60 min (10 mg/kg i.v.): -39%
% Change in Edema 10 min (100 mg/kg p.o.): -26%
% Change in Edema 30 min (100 mg/kg p.o.): -37%
% Change in Edema 60 min (100 mg/kg p.o.): -23%
ED50: 3 mg/kg

O=C(C#CCCCn1c2ccccc2c2ccccc21)C(F)(F)F [Example 2, 7-(9H-Carbazol-9-yl)-1,1,1-trifluoro-3-heptyn-2-one]
ED50: 1 mg/kg

O=C(C#CCCCOc1ccc(F)cc1)C(F)(F)F [Example 3, 1,1,1-Trifluoro-7-(4-fluorophenoxy)-3-heptyn-2-one]
ED50: 30 mg/kg

CC(C)(C)c1ccc(OCCCC#CC(=O)C(F)(F)F)cc1 [Example 4, 7-[4-(1,1-Dimethylethyl)phenoxy]-1,1,1-trifluoro-3-heptyn-2-one]
% Change in Edema 10 min (30 mg/kg i.p.): -45%

O=C(C#CCCCOc1ccc(Cl)cc1)C(F)(F)CCc1ccccc1 [Example 7, 9-(4-Chlorophenoxy)-3,3-difluoro-1-phenyl-5-nonyn-4-one]
ED50: 3 mg/kg

COc1ccc2cc([C@H](C)C(=O)O)ccc2c1 [Naproxen, reference compound]
ED50 at +10 min. (p.o., standard drugs): 18 mg/kg

Luffarrellolide [reference compound]
ED50 at +10 min. (p.o., standard drugs): Not Active
